The test system of assay [1] is BxPC-3 cells. Description: Presto Blue cell growth inhibition assay. The class given is cell-based, human. As for the experimental part:
Cells (15×10^4/mL) were maintained in RPMI medium supplemented with 10% fetal bovine serum (FBS), […], 100 U/ml penicillin, and […] streptomycin solution at 37° C. in a 5% CO2 incubator. Cells were transferred to a freshly prepared medium twice weekly. For the tumor cell growth experiments, BxPC-3 cells (15×10^4/mL) were incubated in the culture medium with control, 5, 10, or 20 nM namodenoson in 96-well microtiter plates for 24 h at 37° C. in a 5% CO2 incubator, after which cell growth inhibition was determined using the Presto Blue assay (Thermo Fisher Scientific, Waltham, MA, USA) used as per the manufacturer's instructions. Experiments under the same conditions with 20 nM namodenoson were also conducted with and without 20 nM of the A3AR antagonist MRS1523 (diluted to the final concentration in RPMI medium).

Assay [2] concerns BxPC-3 cells. The assay can be described thus: 3H-thymidine incorporation assay (cell growth). Format: cell-based. The following applies: Homo sapiens, 48 h, read-out: percentage of growth inhibition of BxPC-3 cells. On the procedure: Cells (15×10^4/mL) were maintained in RPMI medium supplemented with 10% fetal bovine serum (FBS), […], 100 U/ml penicillin, and […] streptomycin solution at 37° C. in a 5% CO2 incubator. Cells were transferred to a freshly prepared medium twice weekly. 3H-thymidine incorporation assay was used to evaluate cell growth. BxPC-3 cells (5,000 cells/well) were incubated (37° C.) with CF102 (namodenoson) in different concentrations: 0.01 nM, 0.1 nM and 1 nM in a 96-well plate for 48 h. Each well was pulsed with 1 μCi 3H-thymidine for the last 24 h. The cells were harvested, and the 3H-thymidine uptake was determined in an LKB liquid scintillation counter (LKB).

In assay [3] the test system is BxPC-3 cells. The assay can be described thus: BxPC-3 subcutaneous tumor growth in nude mice. The class given is in vivo, nude Balb/C mice. The following applies: 10 μg/kg twice daily for 35 days (Day 22 to Day 57), by Day 57 from tumor inoculation. On the procedure: Male nude Balb/C mice (Harlan Laboratories, Jerusalem, Israel), aged 2 months (mean weight, 25 g), received a subcutaneous flank injection of BxPC-3 cells (2.5×10^6). The mice were maintained on a standardized pelleted diet and supplied with tap water. […] Tumor width (W) and length (L) were measured twice weekly with a caliber, and tumor size was calculated (W^2×L/2).

The subject of assay [4] is BxPC-3 cells. Description: Western blot analysis of regulatory protein expression. The class given is cell-based, human. Conditions: 20 nM namodenoson, 24 h, vs. control. On the procedure: Western blot analyses were performed using the same culture conditions as the Presto Blue experiments in 10 cm plates with 20 nM namodenoson or control. After incubation for 24 h at 37° C. in a 5% CO2 incubator, the cell samples were rinsed with ice-cold PBS and transferred to ice-cold RIPA buffer with 1× protease and phosphatase inhibitor cocktail for 20 min. Cell debris was removed using centrifugation at 4° C. for 10 min, at 7500×g. The supernatant was utilized for the Western blot analyses. Protein concentrations were determined using the NanoDrop assay (ThermoFisher Scientific, Waltham, MA, USA). Equal amounts of the sample (50 μg) were separated by SDS-PAGE, using […] (Schleicher & Schuell, Keene, NH, USA). Membranes were blocked with 1% bovine serum albumin and incubated with the relevant primary antibody (dilution 1:1000) for 24 h at 4° C. Blots were then washed and incubated with the secondary antibody for 1 h at room temperature. Bands were recorded using BCIP/NBT color development kit (Promega, Madison, WI, USA).
Background: Immunoblotting shows a protein as a band on a membrane.

Each structure is given as a SMILES string.

As usually defined, the inhibition is the percentage by which the read-out fell short of the control.

Turning to `CCCOC(=O)c1c(-c2ccccc2)nc(CC)c(C(=O)SCC)c1CCC` [MRS1523, reference compound], the “cell growth, % of the control” value in the assay on BxPC-3 cells [1] (20 nM MRS1523 alone, 24 h) was 100.8%+11.1 % of the control.

Take `CNC(=O)[C@H]1O[C@@H](n2cnc3c(NCc4cccc(I)c4)nc(Cl)nc32)[C@H](O)[C@@H]1O` [namodenoson, 2-chloro-N^6-(3-iodobenzyl)-adenosine-5′-N-methyl-uronamide]: the inhibition at 10 pM with BxPC-3 cells [2] (0.01 nM namodenoson) turned out to be 27.9%. The inhibition at 0.0001 µM in the assay on BxPC-3 cells [2] (0.1 nM namodenoson) was 53.7%. The inhibition at 0.001 µM with BxPC-3 cells [2] (1 nM namodenoson) amounted to 67.4%. Moreover, the “cell growth, % of the control” value with BxPC-3 cells [1] (20 nM namodenoson alone, 24 h) was 45.0%+4.2 % of the control. Further, the “cell growth, % of the control” value with BxPC-3 cells [1] (20 nM namodenoson plus 20 nM MRS1523, 24 h) is recorded as 81.1%+6.3 % of the control. Also, 0.005 µM produced 49.7% inhibition in the assay on BxPC-3 cells [1] (Homo sapiens, BXPC-3, 5 nM, 24 h, mean±SE). In the assay with BxPC-3 cells [1] (Homo sapiens, BXPC-3, 10 nM, 24 h, mean±SE), this compound had an inhibition at 0.01 µM of 66.3%. The same compound displayed an inhibition at 0.02 µM with BxPC-3 cells [1] (Homo sapiens, BXPC-3, 20 nM, 24 h, mean±SE) of 82.7%. Moreover, in the assay on BxPC-3 cells [3], the “inhibition of tumor growth vs. control” value was 67.7%+15.2. In addition, in the assay with BxPC-3 cells [4], the “A3AR protein expression level” value is given as “decrease”, the Bad expression entry was “upregulated”, the Bax expression result is reported as “upregulated” and the GSK-3β expression result was “upregulation”. In the assay on BxPC-3 cells [4], the NF-κB expression entry was “downregulated”, the PI3K expression result was “downregulated”, the “cyclin D1 expression level” value is given as “decrease” and the p-Akt expression entry is listed as “downregulated”. Moreover, in the assay with BxPC-3 cells [4], the “pERK 1/2 expression level” value was “decrease”, the “pMEK 1/2 expression level” value is given as “decrease”, the pRaf expression level entry is recorded as “decrease” and the β-catenin expression level result is “decrease”.
